Reference: ChEMBL document CHEMBL1201862, “PubChem BioAssay data set” (2004)
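Five concentrations, 48 hours, 96-well plates. GI50 marks 50% less growth.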 The source made the active and inactive calls. Cut-off read from the data, not from the text of the source: active = GI50 up to about 1.1 µM and inactive = higher.

Experiments:
Test in all cases: inhibition of tumour cell growth, NCI panel, 48 h
[1] = system: SK-MEL-2
[2] = system: MDA-MB-231
[3] = system: ACHN
[4] = system: HCT-15
[5] = system: U-251
[6] = system: HL-60
[7] = system: HCC 2998
[8] = system: SW-620
[9] = system: OVCAR-5
[10] = system: MDA-N
[11] = system: SR
[12] = system: NCI-H522
[13] = system: MDA-MB-435
[14] = system: DU-145
[15] = system: OVCAR-4
[16] = system: Malme-3M
[17] = system: HCT-116
[18] = system: SNB-75
[19] = system: CAKI-1
[20] = system: RPMI-8226

Compound	GI50 [1]	GI50 [2]	GI50 [3]	GI50 [4]	GI50 [5]	GI50 [6]	GI50 [7]	GI50 [8]	GI50 [9]	GI50 [10]	GI50 [11]	GI50 [12]	GI50 [13]	GI50 [14]	GI50 [15]	GI50 [16]	GI50 [17]	GI50 [18]	GI50 [19]	GI50 [20]
Cc1cc(Cl)nc(Nc2nc3ccccc3[nH]2)n1	> 100 µM (inactive)	> 100 µM (inactive)	> 100 µM (inactive)	> 100 µM	> 100 µM (inactive)	> 100 µM (inactive)	> 100 µM (inactive)	> 100 µM (inactive)	> 100 µM (inactive)	> 100 µM (inactive)	32.1 µM (inactive)	2.96 µM (inactive)	> 100 µM (inactive)	> 100 µM (inactive)	> 100 µM (inactive)	> 100 µM (inactive)	> 100 µM (inactive)	> 100 µM (inactive)		
COc1ccc(NC(=O)/C(CC2=Nc3ccc([N+](=O)[O-])cc3NC2O)=N\NC(=O)C[N+](C)(C)C)c(OC)c1 (stereo not given)	> 100 µM (inactive)	12.9 µM (inactive)	67.5 µM (inactive)	45.9 µM	40.7 µM (inactive)	> 100 µM (inactive)	> 100 µM (inactive)	94.8 µM (inactive)	> 100 µM (inactive)	> 100 µM (inactive)	18.4 µM (inactive)	18 µM (inactive)	> 100 µM (inactive)	47.3 µM (inactive)	80 µM (inactive)		30.4 µM (inactive)	> 100 µM (inactive)	> 100 µM (inactive)	
Cc1ccc(S(=O)(=O)n2cc(-c3cnc(N)c(Br)n3)c3ccccc32)cc1	10.8 µM (inactive)	2.54 µM (inactive)	5.46 µM (inactive)	1.21 µM	0.902 µM (active)	0.372 µM (active)	3.29 µM (inactive)	1.04 µM (active)	4.39 µM (inactive)	0.246 µM (active)	0.764 µM (active)		0.238 µM (active)	1.31 µM (inactive)	5.18 µM (inactive)		0.83 µM (active)	1.42 µM (inactive)	3.32 µM (inactive)	1.78 µM (inactive)
CSCCCNC(=O)[C@H](CSC)NC(=O)c1csc(CCNC(=O)[C@@H](NSc2ccccc2[N+](=O)[O-])C(C)O)n1 (stereo not given in full)	> 100 µM (inactive)	> 100 µM (inactive)	> 100 µM (inactive)	> 100 µM	> 100 µM (inactive)	> 100 µM (inactive)	> 100 µM (inactive)	> 100 µM (inactive)	> 100 µM (inactive)	> 100 µM (inactive)	> 100 µM (inactive)	> 100 µM (inactive)	> 100 µM (inactive)	> 100 µM (inactive)	> 100 µM (inactive)	> 100 µM (inactive)	> 100 µM (inactive)	28.2 µM (inactive)	> 100 µM (inactive)	
Cc1cccc(NC(Nc2cccc(C)c2)=C(C(Cl)=C(Cl)Cl)[N+](=O)[O-])c1	16.4 µM (inactive)	3.38 µM (inactive)	15.7 µM (inactive)	13.1 µM	12.6 µM (inactive)		22.8 µM (inactive)	14.8 µM (inactive)	19.6 µM (inactive)	7.45 µM (inactive)	3.81 µM (inactive)	6.52 µM (inactive)	8.87 µM (inactive)	18.7 µM (inactive)	22.8 µM (inactive)	14.4 µM (inactive)	5.31 µM (inactive)	25.2 µM (inactive)	14.7 µM (inactive)	8.11 µM (inactive)
Cc1cccc(NC(=O)/C=C/c2ccc([N+](=O)[O-])cc2)c1	20 µM (inactive)	22.4 µM (inactive)	14.9 µM (inactive)	> 35.1 µM	> 38 µM (inactive)		16.6 µM (inactive)	> 45.3 µM (inactive)	> 42.6 µM (inactive)	> 30.7 µM (inactive)	11.7 µM (inactive)	7.45 µM (inactive)	> 36.6 µM (inactive)	> 38.7 µM (inactive)	> 41.4 µM (inactive)	0.838 µM (active)	> 36.9 µM (inactive)	30.1 µM (inactive)	> 39.3 µM (inactive)	
